Results taken from US10800792B2, “Inhibitors of Bruton's tyrosine kinase and method of their use” (JANSSEN PHARMACEUTICA NV, priority 2015, dated 2020).

Each compound was assayed against unphosphorylated-BTK kinase domain (UP-BTK), GST-tagged human BTK (389-659aa) (Homo sapiens (Human), UniProt Q06187) (assay: BTK kinase Lanthascreen binding assay). Settings: Lanthascreen tracer competition, 60 minutes incubation; pIC50 = negative log of the IC50 in molar.
Method in brief: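 Tracer-displacement binding assay against the non-phosphorylated enzyme, read by Lanthascreen. Reported: pIC50.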

Sequence of unphosphorylated-BTK kinase domain (UP-BTK), GST-tagged human BTK (389-659aa) (Q06187 389-659): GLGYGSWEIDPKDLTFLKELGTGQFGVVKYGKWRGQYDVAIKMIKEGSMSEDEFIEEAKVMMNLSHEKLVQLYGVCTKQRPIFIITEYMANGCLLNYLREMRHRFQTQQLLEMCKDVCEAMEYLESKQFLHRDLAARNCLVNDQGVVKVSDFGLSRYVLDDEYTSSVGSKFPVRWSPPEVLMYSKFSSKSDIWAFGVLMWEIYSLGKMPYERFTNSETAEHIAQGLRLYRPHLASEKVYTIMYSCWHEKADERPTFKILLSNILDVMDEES

Compared with `C=CC(=O)N1CC[C@@H](O)[C@H](NC(=O)c2sc3nccc4c3c2NC(=O)N4c2ccc(Oc3ccccc3)cc2)C1` [Example 655, N-((3R,4R)-1-Acryloyl-4-hydroxypiperidin-3-yl)-4-oxo-5-(4-phenoxyphenyl)-4,5-dihydro-3H-1-thia-3,5,8-triazaacenaphthylene-2-carboxamide], `Cc1cc(Oc2ccccc2)ccc1N1C(=O)Nc2c(C(=O)N[C@@H]3CCCN(C)C3)sc3nccc1c23` [Example 873, (R)-5-(2-Methyl-4-phenoxyphenyl)-N-(1-methylpiperidin-3-yl)-4-oxo-4,5-dihydro-3H-1-thia-3,5,8-triazaacenaphthylene-2-carboxamide] is lower in “BTK_I_binding pIC50” value: 8.0 for the first, 6.9 for the second.

`COc1ccccc1Oc1ccc(N2C(=O)Nc3c(C(=O)NC4CCCN(C#N)C4)sc4nccc2c34)c(C)c1` (stereo not shown) [Example 883, N-(1-Cyanopiperidin-3-yl)-5-(4-(2-methoxyphenoxy)-2-methylphenyl)-4-oxo-4,5-dihydro-3H-1-thia-3,5,8-triazaacenaphthylene-2-carboxamide] and `Cc1cc(Oc2ccccc2)ccc1N1C(=O)Nc2c(C(=O)N[C@@H]3CCCN(C(=O)[C@H]4CCCN4)C3)sc3nccc1c23` [Example 876, 5-(2-Methyl-4-phenoxyphenyl)-4-oxo-N—((R)-1-((R)-pyrrolidine-2-carbonyl)piperidin-3-yl)-4,5-dihydro-3H-1-thia-3,5,8-triazaacenaphthylene-2-carboxamide] are within 0.2 log units of each other in “BTK_I_binding pIC50” value: 7.0 for the first, 7.1 for the second.

In the case of `Cc1cc(Oc2ccccc2)ccc1N1C(=O)Nc2c(NC(=O)C3CCN(C(=O)CC#N)CC3)sc3nccc1c23` [Example 819, 1-(2-Cyanoacetyl)-N-(5-(2-methyl-4-phenoxyphenyl)-4-oxo-4,5-dihydro-3H-1-thia-3,5,8-triazaacenaphthylen-2-yl)piperidine-4-carboxamide], the “BTK_I_binding pIC50” value is reported as 5.9.

`CC(=O)N1CCC[C@@H](NC(=O)c2sc3nccc4c3c2NC(=O)N4c2ccc(Oc3cccnn3)cc2)C1` [Example 812, (R)—N-(1-Acetylpiperidin-3-yl)-4-oxo-5-(4-(pyridazin-3-yloxy)phenyl)-4,5-dihydro-3H-1-thia-3,5,8-triazaacenaphthylene-2-carboxamide] was tested, and the “BTK_I_binding pIC50” value was less than 6.
In the case of `CC(C)(C)OC(=O)N1CCC[C@@H](NC(=O)c2sc3nccc4c3c2NC(=O)N4c2ccc(OC(C)(C)C)cc2)C1` [Example 652, (R)-tert-Butyl 3-(5-(4-(tert-butoxy)phenyl)-4-oxo-4,5-dihydro-3H-1-thia-3,5,8-triazaacenaphthylene-2-carboxamido)piperidine-1-carboxylate], the “BTK_I_binding pIC50” value is reported as less than 5.
For `O=C(N[C@@H]1CCCNC1)c1sc2nccc3c2c1NC(=O)N3c1ccnc(C2CCCCC2)c1` [Example 731, (R)-5-(2-Cyclohexylpyridin-4-yl)-4-oxo-N-(piperidin-3-yl)-4,5-dihydro-3H-1-thia-3,5,8-triazaacenaphthylene-2-carboxamide], the “BTK_I_binding pIC50” value was less than 6.

Same assay, conditions: pIC50 = negative log of the IC50 in molar; 60 minutes incubation, 50 nM Tracer 236

Going from `C=CC(=O)N1CC[C@@H](NC(=O)c2sc3nccc4c3c2NC(=O)N4c2ccc(Oc3cccc4ccoc34)cc2C)C1` [Example 22, (R)—N-(1-Acryloylpyrrolidin-3-yl)-5-(4-(benzofuran-7-yloxy)-2-methylphenyl)-4-oxo-4,5-dihydro-3H-1-thia-3,5,8-triazaacenaphthylene-2-carboxamide] to `Cc1cc(Oc2cccc3ccoc23)ccc1N1C(=O)Nc2c(C(=O)N[C@@H]3CCCN(C)C3)sc3nccc1c23` [Example 70, (R)-5-(4-(Benzofuran-7-yloxy)-2-methylphenyl)-N-(1-methylpiperidin-3-yl)-4-oxo-4,5-dihydro-3H-1-thia-3,5,8-triazaacenaphthylene-2-carboxamide], the “BTK_I_binding pIC50” value falls from 7.4 to 7.1.

First: CN1CCC[C@@H](NC(=O)c2sc3nccc4c3c2NC(=O)N4c2ccc(Oc3ccccc3)cc2Cl)C1 [Example 133, (R)-5-(2-Chloro-4-phenoxyphenyl)-N-(1-methylpiperidin-3-yl)-4-oxo-4,5-dihydro-3H-1-thia-3,5,8-triazaacenaphthylene-2-carboxamide]
Second: Cc1c(N2C(=O)Nc3c(C(=O)N[C@@H]4CCCN(C)C4)sc4nccc2c34)ccc(Oc2ccccc2)c1F [Example 59, (R)-5-(3-Fluoro-2-methyl-4-phenoxyphenyl)-N-(1-methylpiperidin-3-yl)-4-oxo-4,5-dihydro-3H-1-thia-3,5,8-triazaacenaphthylene-2-carboxamide]
The “BTK_I_binding pIC50” value of the first is lower: 7.0 for the first, 7.3 for the second.

In the case of `Cc1cc(Oc2ccccc2)ccc1N1C(=O)Nc2c(C(=O)NC3CCCCN(C#N)C3)sc3nccc1c23` (stereo not shown) [Example 97, N-(1-Cyanoazepan-3-yl)-5-(2-methyl-4-phenoxyphenyl)-4-oxo-4,5-dihydro-3H-1-thia-3,5,8-triazaacenaphthylene-2-carboxamide], the “BTK_I_binding pIC50” value is reported as 6.9.

Same assay, conditions: unphosphorylated-BTK kinase domain, 50 nM Tracer 236, 60 minutes; pIC50 = negative log of the IC50 in molar

`C=CC(=O)N1CCC[C@@H](NC(=O)c2sc3nccc4c3c2NC(=O)N4c2ncc(Oc3ccccc3)cc2C)C1` [Example 497, (R)—N-(1-Acryloylpiperidin-3-yl)-5-(3-methyl-5-phenoxypyridin-2-yl)-4-oxo-4,5-dihydro-3H-1-thia-3,5,8-triazaacenaphthylene-2-carboxamide] and `Cc1cc(Oc2ccccc2)ccc1N1C(=O)Nc2c(C(=O)N[C@@H]3CCN(C(=O)/C=C/CO)C3)sc3nccc1c23` (single isomer, unassigned) [Example 522, (R,E)-N-(1-(4-Hydroxybut-2-enoyl)pyrrolidin-3-yl)-5-(*S)-(2-methyl-4-phenoxyphenyl)-4-oxo-4,5-dihydro-3H-1-thia-3,5,8-triazaacenaphthylene-2-carboxamide] are within 0.2 log units of each other in “BTK_I_binding pIC50” value: 7.9 for the first, 8.0 for the second.

Going from `C=CC(=O)N1C[C@@H](O)[C@@H](NC(=O)c2sc3nccc4c3c2NC(=O)N4c2ccc(Oc3ccccc3)cc2C)C1` (relative stereo) [Example 489, N-((3S,4R)-1-Acryloyl-4-hydroxypyrrolidin-3-yl)-5-(*S)-(2-methyl-4-phenoxyphenyl)-4-oxo-4,5-dihydro-3H-1-thia-3,5,8-triazaacenaphthylene-2-carboxamide] to `Cc1cc(Oc2ccccc2)ccc1N1C(=O)Nc2c(C(=O)N[C@@H]3CCCN(C(=O)CN4CCCCC4)C3)sc3nccc1c23` [Example 393, (R)-5-(2-Methyl-4-phenoxyphenyl)-4-oxo-N-(1-(2-(piperidin-1-yl)acetyl)piperidin-3-yl)-4,5-dihydro-3H-1-thia-3,5,8-triazaacenaphthylene-2-carboxamide], the “BTK_I_binding pIC50” value falls from 7.6 to 6.8.

Same assay, conditions: unphosphorylated-BTK kinase domain, 50 nM Tracer 236, 60 minutes; pIC50 = negative log of the IC50 in molar; read-out: BTK_I_binding pIC50 (converted)

`[2H]c1c([2H])c([2H])c(Oc2ccc(N3C(=O)Nc4c(C(=O)N[C@@H]5CCN(C(=O)C=C)C5)sc5nccc3c45)c(C)c2)c([2H])c1[2H]` [Example 376, (R)—N-(1-Acryloylpyrrolidin-3-yl)-5-(2-methyl-4-(2,3,4,5,6-pentadeuteriophenoxy)phenyl)-4-oxo-4,5-dihydro-3H-1-thia-3,5,8-triazaacenaphthylene-2-carboxamide] showed an IC50 of 15.8 nM.

Same assay, conditions: unphosphorylated-BTK kinase domain, 60 minutes incubation, 50 nM Tracer 236; pIC50 = negative log of the IC50 in molar

For `Cc1cc(Oc2ccccc2)ccc1N1C(=O)Nc2c(C(=O)N[C@H]3CCN(C(=O)/C(C#N)=C/C4CC4)C3)sc3nccc1c23` [Example 905, (S,E)-N-(1-(2-Cyano-3-cyclopropylacryloyl)pyrrolidin-3-yl)-5-(2-methyl-4-phenoxyphenyl)-4-oxo-4,5-dihydro-3H-1-thia-3,5,8-triazaacenaphthylene-2-carboxamide], the “BTK_I_binding pIC50” value was 6.7.
